Data on 21 molecules can be found in ChEMBL document CHEMBL4190343, “Novel deoxyvasicinone derivatives as potent multitarget-directed ligands for the treatment of Alzheimer's disease: Design, synthesis, and biological evaluation” (Eur J Med Chem, 2017).

In data set [1] the target is T1, Acetylcholinesterase (Homo sapiens, UniProt P22303).
In data set [2] the target is Cholinesterase (Homo sapiens, UniProt P06276).
A short description of data set [3]: Metal chelating activity against Zn2+ ions assessed as compound-Zn2+ complex formation at 50 uM incubated for 30 mins using ZnCl2 by UV-Visible spectrophotometry.
In data set [4] the target is T1, Acetylcholinesterase. Nature of the data set: Inhibition of human AChE assessed as inhibitor dissociation constant for enzyme-substrate-inhibitor complex pre-incubated for 6 mins before ATCI substrate addition and measured after 12 mins by DTNB reagent dependent Ellman's method based Lineweaver-Burk plot analysis. Background: Ellman's reagent forms a yellow product with free thiols.

Data set [5] can be described thus: Metal chelating activity against Fe2+ ions assessed as reduction in intrinsic fluorescence of compound at 50 uM incubated for 30 mins using FeSO4 by fluorescence spectrophotometry.
Data set [6] can be described thus: Metal chelating activity against Cu2+ ions assessed as reduction in intrinsic fluorescence of compound at 50 uM incubated for 30 mins using CuSO4 by fluorescence spectrophotometry.
The nature of data set [7]: Metal chelating activity against Cu2+ ions assessed as compound-Cu2+ complex formation at 50 uM incubated for 30 mins using CuSO4 by UV-Visible spectrophotometry.
Data set [8] deals with T1, Acetylcholinesterase. The experiment in a line: Inhibition of human AChE assessed as inhibitor dissociation constant for enzyme-inhibitor complex pre-incubated for 6 mins before ATCI substrate addition and measured after 12 mins by DTNB reagent dependent Ellman's method based Lineweaver-Burk plot analysis.
The nature of data set [9]: Metal chelating activity against Fe3+ ions assessed as compound-Fe3+ complex formation at 50 uM incubated for 30 mins using FeCl3 by UV-Visible spectrophotometry.
Data set [10] is described as follows: Metal chelating activity against Fe3+ ions assessed as reduction in intrinsic fluorescence of compound at 50 uM incubated for 30 mins using FeCl3 by fluorescence spectrophotometry.
Data set [11] in a line: Metal chelating activity against Cu2+ ions assessed as 1:1 stoichiometry compound-Cu2+ complex formation at 50 uM incubated for 30 mins using CuSO4 by UV-Visible spectrophotometry.
Data set [12] in a line: Metal chelating activity against Zn2+ ions assessed as reduction in intrinsic fluorescence of compound at 50 uM incubated for 30 mins using ZnCl2 by fluorescence spectrophotometry.
The nature of data set [13]: Metal chelating activity against Fe2+ ions assessed as compound-Fe2+ complex formation at 50 uM incubated for 30 mins using FeSO4 by UV-Visible spectrophotometry.
Compound in data set [14]: O=C(CNCc1cc(F)cc(F)c1)Nc1ccc2nc3n(c(=O)c2c1)CCC3
The experiment in a line: Inhibition of human AChE assessed as ATCI substrate Km at 5 nM pre-incubated for 6 mins before ATCI substrate addition and measured after 12 mins by DTNB reagent dependent Ellman's method based Michaelis-Menten kinetics analysis (reference value: […] mM).

Compound in data set [15]: O=C(CNCc1cc(F)cc(F)c1)Nc1ccc2nc3n(c(=O)c2c1)CCC3
Nature of the data set: Inhibition of human AChE assessed as ATCI substrate Vmax at 10 nM pre-incubated for 6 mins before ATCI substrate addition and measured after 12 mins by DTNB reagent dependent Ellman's method based Michaelis-Menten kinetics analysis (reference value: […] deltaA/min).

Compound in data set [16]: O=C(CNCc1cc(F)cc(F)c1)Nc1ccc2nc3n(c(=O)c2c1)CCC3
The experiment in a line: Inhibition of human AChE assessed as ATCI substrate Km at 1 nM pre-incubated for 6 mins before ATCI substrate addition and measured after 12 mins by DTNB reagent dependent Ellman's method based Michaelis-Menten kinetics analysis (reference value: […] mM).

Compound in data set [17]: O=C(CNCc1cc(F)cc(F)c1)Nc1ccc2nc3n(c(=O)c2c1)CCC3
The experiment in a line: Inhibition of human AChE assessed as ATCI substrate Vmax at 5 nM pre-incubated for 6 mins before ATCI substrate addition and measured after 12 mins by DTNB reagent dependent Ellman's method based Michaelis-Menten kinetics analysis (reference value: […] deltaA/min).

Compound in data set [18]: O=C(CNCc1cc(F)cc(F)c1)Nc1ccc2nc3n(c(=O)c2c1)CCC3
Nature of the data set: Inhibition of human AChE assessed as ATCI substrate Km at 10 nM pre-incubated for 6 mins before ATCI substrate addition and measured after 12 mins by DTNB reagent dependent Ellman's method based Michaelis-Menten kinetics analysis (reference value: […] mM).

Compound in data set [19]: O=C(CNCc1cc(F)cc(F)c1)Nc1ccc2nc3n(c(=O)c2c1)CCC3
The experiment in a line: Inhibition of human AChE assessed as ATCI substrate Vmax at 1 nM pre-incubated for 6 mins before ATCI substrate addition and measured after 12 mins by DTNB reagent dependent Ellman's method based Michaelis-Menten kinetics analysis (reference value: […] deltaA/min).

The source made the active and inactive calls. The calls are words filed in the database; no cut-off is given here.

Chain of Cholinesterase (P06276 whole entry): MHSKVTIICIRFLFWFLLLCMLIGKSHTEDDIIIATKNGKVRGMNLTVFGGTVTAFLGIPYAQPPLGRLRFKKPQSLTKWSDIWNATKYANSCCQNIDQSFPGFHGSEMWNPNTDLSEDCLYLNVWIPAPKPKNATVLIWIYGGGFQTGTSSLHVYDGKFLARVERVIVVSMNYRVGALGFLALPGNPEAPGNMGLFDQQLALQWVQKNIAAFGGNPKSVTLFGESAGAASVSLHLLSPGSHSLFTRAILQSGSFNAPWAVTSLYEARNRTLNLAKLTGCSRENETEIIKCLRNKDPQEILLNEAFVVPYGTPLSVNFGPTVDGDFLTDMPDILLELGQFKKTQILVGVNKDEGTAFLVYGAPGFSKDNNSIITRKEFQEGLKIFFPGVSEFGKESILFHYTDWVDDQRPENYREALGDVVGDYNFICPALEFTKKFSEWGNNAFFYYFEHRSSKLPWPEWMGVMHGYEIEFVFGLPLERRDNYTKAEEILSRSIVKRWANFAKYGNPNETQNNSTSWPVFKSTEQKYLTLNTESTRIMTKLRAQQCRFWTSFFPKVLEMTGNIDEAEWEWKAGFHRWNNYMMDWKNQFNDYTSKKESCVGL

Usually IC50 stands for the concentration at which inhibition is half-maximal. For the molecule `C=CCNCC(=O)Nc1ccc2nc3n(c(=O)c2c1)CCC3`, the figures for the concentration for half-maximal inhibition (IC50) in data set [1] and in [2] were 66.6 nM and 16.6 nM, respectively.

Consider `CCNCC(=O)Nc1ccc2nc3n(c(=O)c2c1)CCC3`, for which the values for the IC50 in data set [1] and in data set [2] were 557 nM and 1000 nM, respectively.

In the case of `CCCCCCCCCCCCCCCCNCC(=O)Nc1ccc2nc3n(c(=O)c2c1)CCC3`, the IC50 in data set [1] is 5.31 nM; in data set [2], 4.35 nM.

Take `Cc1ccccc1CNCC(=O)Nc1ccc2nc3n(c(=O)c2c1)CCC3`: the IC50 is 119 nM in [1] and 107 nM in data set [2].

As for `CCCNCC(=O)Nc1ccc2nc3n(c(=O)c2c1)CCC3`, the concentration for half-maximal inhibition (IC50) in data set [1] was found to be 310 nM; in [2], 1190 nM.

For `N#Cc1ccccc1CNCC(=O)Nc1ccc2nc3n(c(=O)c2c1)CCC3`, the IC50 in [1] amounted to 16.8 nM; in data set [2] it was 29.9 nM.

With `CCCCCCCCCCCCNCC(=O)Nc1ccc2nc3n(c(=O)c2c1)CCC3`, the values for the IC50 in [1] and in [2] were 36.7 nM and 26.8 nM, respectively.

On to `O=C(CNCc1ccccc1)Nc1ccc2nc3n(c(=O)c2c1)CCC3`, for which the IC50 in [1] was determined as 231 nM; in [2], 145 nM.

For orientation: Ki means the dissociation constant of the complex between target and ligand, obtained from inhibition or displacement. As to `O=C(CNCc1cc(F)cc(F)c1)Nc1ccc2nc3n(c(=O)c2c1)CCC3`, the IC50 stood at 7.61 nM in [1] and 2.35 nM in data set [2]. Moreover, the outcome in [3] and in [12] was inactive. The results for the Ki in [4] and in data set [8] were 15.8 nM and 9.85 nM, respectively. For the same molecule, the result in data set [5], in data set [6], in [7], in data set [9], in data set [10] and in data set [11] was Active. The result in [13] was Active.

In the case of `C#CCNCC(=O)Nc1ccc2nc3n(c(=O)c2c1)CCC3`, the IC50 in [1] came out at 46.4 nM; in data set [2], 12.4 nM.

Consider `O=C(CNCCCc1ccccc1)Nc1ccc2nc3n(c(=O)c2c1)CCC3`, for which the IC50 was found to be 4.09 nM in data set [1] and 20.7 nM in data set [2].

`C=CCCNCC(=O)Nc1ccc2nc3n(c(=O)c2c1)CCC3`: the IC50 in data set [1] worked out at 13.3 nM; in data set [2] it was 81.5 nM.

For the molecule `CCCCCCCCNCC(=O)Nc1ccc2nc3n(c(=O)c2c1)CCC3`, the 50% inhibitory concentration (IC50) was 10.6 nM in [1] and 45.7 nM in data set [2].

In the case of `O=C(CNCc1ccccc1[N+](=O)[O-])Nc1ccc2nc3n(c(=O)c2c1)CCC3`, the IC50 in data set [1] came out at 30.7 nM; in data set [2], 103 nM.

As to `CCCCCCCCCCNCC(=O)Nc1ccc2nc3n(c(=O)c2c1)CCC3`, the half-inhibitory concentration (IC50) is 24.1 nM in data set [1] and 37.2 nM in data set [2].

`CCCCNCC(=O)Nc1ccc2nc3n(c(=O)c2c1)CCC3`: the values for the IC50 in [1] and in data set [2] were 21.2 nM and 107 nM, respectively.

Turning to `O=C(CNCc1ccccc1F)Nc1ccc2nc3n(c(=O)c2c1)CCC3`, the IC50 is 528 nM in data set [1] and 108 nM in data set [2].

Take `O=c1c2ccccc2nc2n1CCC2` [DEOXYVASICINONE]: the values for the IC50 in data set [1] and in [2] were 62500 nM and 45100 nM, respectively.

Turning to `CCCCCCNCC(=O)Nc1ccc2nc3n(c(=O)c2c1)CCC3`, the values for the IC50 in data set [1] and in data set [2] were 25.3 nM and 10.5 nM, respectively.

Take `CC(C)=CCNCC(=O)Nc1ccc2nc3n(c(=O)c2c1)CCC3`: the results for the IC50 in [1] and in data set [2] were 25.9 nM and 16.3 nM, respectively.

B1: Acetylcholinesterase (Homo sapiens), P22303 (protein)
chain: MRPPQCLLHTPSLASPLLLLLLWLLGGGVGAEGREDAELLVTVRGGRLRGIRLKTPGGPVSAFLGIPFAEPPMGPRRFLPPEPKQPWSGVVDATTFQSVCYQYVDTLYPGFEGTEMWNPNRELSEDCLYLNVWTPYPRPTSPTPVLVWIYGGGFYSGASSLDVYDGRFLVQAERTVLVSMNYRVGAFGFLALPGSREAPGNVGLLDQRLALQWVQENVAAFGGDPTSVTLFGESAGAASVGMHLLSPPSRGLFHRAVLQSGAPNGPWATVGMGEARRRATQLAHLVGCPPGGTGGNDTELVACLRTRPAQVLVNHEWHVLPQESVFRFSFVPVVDGDFLSDTPEALINAGDFHGLQVLVGVVKDEGSYFLVYGAPGFSKDNESLISRAEFLAGVRVGVPQVSDLAAEAVVLHYTDWLHPEDPARLREALSDVVGDHNVVCPVAQLAGRLAAQGARVYAYVFEHRASTLSWPLWMGVPHGYEIEFIFGIPLDPSRNYTAEEKIFAQRLMRYWANFARTGDPNEPRDPKAPQWPPYTAGAQQYVSLDLRPLEVRRGLRAQACAFWNRFLPKLLSATDTLDEAERQWKAEFHRWSSYMVHWKNQFDHYSKQDRCSDL
Broadly, the Km is the concentration of substrate that gives half-maximal velocity. B1: the results for the Km in data set [14], in data set [16] and in data set [18] were 369 µM, 329 µM and 434 µM, respectively. In addition, the values for the Vmax in data set [15], in data set [17] and in data set [19] were 0.152 deltaA/min, 0.19 deltaA/min and 0.212 deltaA/min, respectively.
